Assay results taken from patent US20110105389A1 (priority 2009, published 2011).

Legend:
[1] = Pharmacokinetic analysis (intravenous and oral), Method B9; assay type: in vivo; conditions: for Tmax: individual values; for AUC(0-inf) / clearance / half-life / Vd / Cmax: plasma; for Vd: read-out: Vz; for Cmax: read-out: Cmax
Method in brief: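 Compound concentration was typically 2 mg/mL for intravenous and 8 mg/mL for oral dosing. PK parameters such as elimination half-life and total plasma clearance were derived.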

hERG channel = target: T1, hERG channel (Homo sapiens, UniProt Q12809); assay: hERG channel inhibition (whole cell IKr currents, HEK293), Method B16; assay type: cell-based; conditions: in comparison to vehicle (0.1% DMSO) controls, up to 100 μM
T1 construct: expressed in transfected cells; host or cells: HEK293
Text: B16. hERG Channel Inhibition
Direct interactions of compounds with the hERG channel account for the majority of known cases of cardiotoxicity. […]

[2] = Caco-2 permeability, Method B7; assay type: in vitro ADME, human; conditions: human; for Papp A→B at 60 min, 10 μM / Papp B→A at 60 min, 10 μM: Caco-2, 10 μM, without P-gp inhibitor; for efflux ratio at 60 min, 10 μM: Caco-2, without P-gp inhibitor, read-out: Efflux ratio Papp B2A/Papp A2B
Text: B7. Determination of Caco-2 Permeability
The Caco-2 cell line, derived from a human colorectal carcinoma, has become an established in vitro model for the prediction of drug absorption across the human intestine. (Sun, D.; Yu, L. X.; Hussain, M. A.; Wall, D. A.; Smith, R. L.; Amidon, G. L. Curr. Opin. Drug Discov. Devel. 2004, 7, 75-85; Bergstrom, C. A. Basic Clin. Pharmacol. Toxicol. 2005, 96, 156-61; Balimane, P. V.; Han, Y. H.; Chong, S. AAPS J. 2006, 8, E1-13; Shah, P.; Jogani, V.; Bagchi, T.; Misra, A. Biotechnol. Prog. 2006, 22, 186-198.) When cultured on semi-permeable membranes, Caco-2 cells differentiate into a highly functionalized epithelial barrier with remarkable morphological and biochemical similarity to the small intestinal columnar epithelium. Fully differentiated cell monolayers can be used to assess the membrane transport properties of novel compounds.
Assays to determine the permeability of compounds of the invention utilizing Caco-2 cells are commercially available, for example NoAb BioDiscoveries (Mississaugua, ON, Canada) and Absorption Systems (Exton, Pa., USA).
Permeability across the Caco-2 cell layer was determined by growing the cells on a membrane placed between two (donor and acceptor) chambers. Drug candidates are typically added to the apical (A) side of the cell layer and their appearance in the basolateral (B) side is measured over incubation time. Permeability in this direction represents intestinal absorption. Permeability may also be determined from the basolateral to the apical side of the Caco-2 cell. […]
Permeability (10 μM) for compounds of the invention in the apical to basolateral and basolateral to apical direction were tested in duplicate. Samples will be collected from the donor and acceptor chambers at the beginning (0 min) and following 60 min of incubation at 37° C. and stored frozen at −70° C. until bioanalysis. Samples for each test compound generated from the Caco-2 permeability assay were further analyzed by LC-MS-MS. The permeability of [^3H]-mannitol and [^3H]-propranolol were determined in parallel as controls.
The permeability coefficient (Papp) of each compound and radiolabeled standard was determined using the following equation: […]
where dQ/dT represents the permeability rate, Ci denotes the initial concentration in the donor compartment, and A represents the surface area of the filter. Ci is determined from the mean concentration of duplicate samples taken prior to addition to the donor compartment. Permeability rates were calculated by plotting the cumulative amount of compound measured in the acceptor compartment over time and determining the slope of the line by linear regression analysis. The duplicate and mean apical to basolateral and basolateral to apical Papp's were reported for each compound and standard. […]

T1 sequence (Q12809 whole entry): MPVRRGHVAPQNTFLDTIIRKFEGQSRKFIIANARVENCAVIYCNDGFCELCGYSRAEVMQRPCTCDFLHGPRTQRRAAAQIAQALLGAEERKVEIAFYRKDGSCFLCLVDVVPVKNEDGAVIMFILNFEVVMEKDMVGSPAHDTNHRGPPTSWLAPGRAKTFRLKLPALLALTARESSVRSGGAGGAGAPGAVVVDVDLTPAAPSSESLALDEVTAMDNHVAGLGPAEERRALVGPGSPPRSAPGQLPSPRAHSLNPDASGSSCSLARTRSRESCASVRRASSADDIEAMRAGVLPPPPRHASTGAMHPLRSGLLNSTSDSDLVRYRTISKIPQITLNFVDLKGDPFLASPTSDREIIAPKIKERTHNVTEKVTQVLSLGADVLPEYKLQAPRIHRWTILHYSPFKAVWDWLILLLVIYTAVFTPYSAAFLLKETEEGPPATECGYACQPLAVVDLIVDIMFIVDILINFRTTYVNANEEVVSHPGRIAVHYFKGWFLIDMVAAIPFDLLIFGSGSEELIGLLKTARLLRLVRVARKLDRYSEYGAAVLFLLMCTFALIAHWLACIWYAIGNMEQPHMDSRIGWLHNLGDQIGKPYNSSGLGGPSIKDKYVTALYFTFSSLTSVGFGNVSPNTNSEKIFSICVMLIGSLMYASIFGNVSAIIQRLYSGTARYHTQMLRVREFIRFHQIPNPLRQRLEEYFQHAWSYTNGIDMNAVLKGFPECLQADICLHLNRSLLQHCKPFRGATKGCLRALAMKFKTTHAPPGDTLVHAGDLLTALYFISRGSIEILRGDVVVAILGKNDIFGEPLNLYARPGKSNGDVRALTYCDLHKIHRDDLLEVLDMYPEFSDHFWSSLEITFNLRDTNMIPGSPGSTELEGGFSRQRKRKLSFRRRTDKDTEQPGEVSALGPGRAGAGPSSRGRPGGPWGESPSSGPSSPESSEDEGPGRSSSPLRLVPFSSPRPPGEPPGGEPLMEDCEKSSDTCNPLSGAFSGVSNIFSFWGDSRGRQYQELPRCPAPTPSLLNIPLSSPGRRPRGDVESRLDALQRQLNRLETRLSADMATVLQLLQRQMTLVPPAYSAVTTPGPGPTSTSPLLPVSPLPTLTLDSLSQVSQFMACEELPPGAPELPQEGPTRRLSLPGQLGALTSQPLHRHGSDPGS

Row | Compound | F ([1]; Oral, 8 mg/kg) | Tmax ([1]; Oral, 8 mg/kg) | AUC(0-inf) ([1]; Intravenous, 2 mg/kg) | clearance ([1]; Intravenous, 2 mg/kg) | half-life ([1]; Intravenous, 2 mg/kg) | Vd ([1]; Intravenous, 2 mg/kg) | AUC(0-inf) ([1]; Oral, 8 mg/kg) | Cmax ([1]; Oral, 8 mg/kg) | effect on hERG channel function (hERG channel) | Papp A→B at 60 min, 10 μM [2] | Papp B→A at 60 min, 10 μM [2] | efflux ratio at 60 min, 10 μM [2]
1 | CC(C)[C@@H]1NCCOc2ccccc2C#CCNC(=O)[C@@H](Cc2ccccc2)NC(=O)[C@H](C(C)O)N(C)C1=O (stereo partly drawn) [Compound 1712] | 15 ± 10% | 15/15/15 | 544 ng·h/mL | 62 ± 10 mL/min/kg | 2.3 ± 1.43 h | 13.2 ± 9.57 L/kg | 336 ng·h/mL | 352 ± 297 ng/mL | no significant effect |  |  | 
2 | CC(C)[C@@H]1NCCOc2ccccc2C2CCC(C2)NC(=O)[C@@H](Cc2ccccc2)NC(=O)[C@H](C(C)O)N(C)C1=O (stereo partly drawn) [Compound 1848] | 11 ± 2% | 30/30 | 2600 ng·h/mL | 17 ± 9 mL/min/kg | 1.8 ± 0.85 h | 2.55 ± 1.47 L/kg | 1110 ng·h/mL | 421 ± 16 ng/mL | no significant effect | 0.266 ×10⁻⁶ cm/s | 64.2 ×10⁻⁶ cm/s | 241
3 | CC(C)[C@@H]1NCCOc2cccc(F)c2C#CCNC(=O)[C@@H](Cc2ccccc2)NC(=O)[C@H](C(C)O)N(C)C1=O (stereo partly drawn) [Compound 1929] | 42 ± 51% | 15/15/30 | 1060 ng·h/mL | 32 ± 4 mL/min/kg | 2.83 ± 1.03 h | 7.99 ± 3.7 L/kg | 1790 ng·h/mL | 628 ± 766 ng/mL | no significant effect | 0.171 ×10⁻⁶ cm/s | 36.9 ×10⁻⁶ cm/s | 216
